Here are results for five compounds from US9796671B2, “Aurora kinase inhibitors” (REGENTS OF THE UNIVERSITY OF MINNESOTA, priority 2012, dated 2017).

Structures are written as SMILES.

The subject of this assay is HCT116 cells. The assay can be described thus: Anchorage-independent growth (soft agar colony formation). It counts as cell-based. The conditions noted are these: 0.5 μM. On the procedure:
FIGS. 3A and 3B. Compounds 1-8 suppress the anchorage-independent growth of HCT116 cells. The asterisk indicates a significant (* p<0.05, ** p<0.01) decrease in colony formation in cells treated with each compound compared with the DMSO treated control group. Two concentrations of each compound, 0.5 μM and 5 μM were tested. […] Compounds 2 and 4 had no effect.
Tumor cells are suspended in basal medium Eagle (BME) medium and added to 0.6% agar, with different concentrations of Compound 1 in a base layer and a top layer of 0.3% agar. The cultures are maintained at 37° C. in a 5% CO2 incubator for 1 to 2 weeks and then colonies are counted under a microscope using the Image-Pro Plus software (v.4) program (Media Cybernetics, Silver Spring, Md.).

Regarding `O=C(/C=C/c1ccc2c(c1)OCO2)/C=C1/C(=O)Nc2ccc(Cl)cc21` [Compound 2], the “anchorage-independent growth of HCT116 cells (colony formation)” value (from here on “anchorage-independent growth”) is reported as “no effect”.

Take `O=C(/C=C/c1ccc2c(c1)OCO2)/C=C1/C(=O)Nc2cccc(Cl)c21` [Compound 4]: the “anchorage-independent growth” value is on record as “no effect”. As to `COc1cc(/C=C/C(=O)/C=C2/C(=O)Nc3ccccc32)cc(OC)c1OC` [Compound 5], the “anchorage-independent growth” value is “best efficiency”. Turning to `O=C(/C=C/c1ccc2c(c1)OCO2)/C=C1/C(=O)Nc2ccc(F)cc21` [Compound 6], the “anchorage-independent growth” value is “best efficiency”. For `COc1cc(/C=C/C(=O)/C=C2/C(=O)Nc3ccccc32)ccc1O` [Compound 8], the “anchorage-independent growth” value is reported as “best efficiency”.
